According to publication PMC6946680, “Modulation of brain cation-Cl^− cotransport via the SPAK kinase inhibitor ZT-1a” (Nature Communications, 2020):
Several values for one entry are separate records, joined by “and”; a condition that tells them apart may be missing. Identical values can stand only once. Entries after “also recorded” stand apart in the source; their conditions may differ.

Columns and labels:
[1] = tested on: regional cerebral blood flow; experiment: Regional cerebral blood flow by laser speckle contrast imaging after tMCAO; assay type: in vivo, mouse; details: within the 24-h post-stroke period; ischemic mice
Description: Regional cerebral blood flow was measured using a two-dimensional laser speckle contrast analysis system (PeriCam PSI High Resolution with PIMSoft, Perimed)[65]. Isoflurane-anesthetized mice were head-fixed using stereotaxic equipment during imaging. The skin was retracted to expose the intact skull. Images were taken at 19 frames/second with averaging. Average signal intensity was taken from fixed-size (0.5-mm^2) regions of interest drawn over the parietal bone plate on the ipsi (IL)- and contralateral (CL) sides. Percent perfusion values were taken in comparison with the mean values of the pre-ischemic ipsilateral side. Five consecutive images at each time period per animal were averaged for analysis. […]
cerebral blood flow (rCBF) in ischemic mice. a and d Representative two-dimensional laser speckle contrast images of rCBF. Vehicle (DMSO), ZT-1a (A, 2.5 mg/kg), or Closantel (D, 1.25 mg/kg, i.p.) was administered i.p. at 3 hr and again at 8 hr post-reperfusion after MCAO. Pseudocolor scale bar indicates relative signal intensity. b and e No changes of rCBF were detected in the non-ischemic […]
contralateral (CL) hemispheres of vehicle-control or ZT-1a-treated (b) or Closantel-treated mice (e).
Data are mean ± SD, n = 3. c and f Similar reductions and recoveries of rCBF in the ischemic ipsilateral hemispheres (IL) were detected in the ZT-1a-treated (c) or Closantel-treated ischemic mice (f), and neither differed from vehicle-injected mice. Data are mean ± SEM, n = 3.

SPAK pSer373 = experiment: Immunoblot of SPAK/OSR1 p-Ser373/Ser325 in HEK-293 cells; assay type: cell-based, human; details: for pSPAK/SPAK band intensity ratio: single replicates
KCC3 pThr1048 = experiment: Immunoblot of KCC site 2 phosphorylation (KCC3 Thr1048) in HEK-293 cells transfected with FLAG-KCC3; assay type: cell-based, human; details: for T1007/KCC2 band intensity ratio: single replicates
[2] = tested on: mouse model of ischemic stroke (tMCAO); experiment: Infarct volume and hemispheric swelling (TTC) 24 h after tMCAO; assay type: in vivo
[3] = Immunoblot of KCC site 1 phosphorylation (KCC3 Thr991) in HEK-293 cells transfected with FLAG-KCC3; assay type: cell-based, human
[4] = target: human SPAK 452-547(C-term) with WNK peptide (RFQV) (Homo sapiens, UniProt Q9UEW8); experiment: Fluorescence polarization of SPAK–WNK peptide interaction; assay type: binding; details: for Inhibitor vs SPAK FL (fluorescence polarization signal): Fig S5b
NKCC1 pThr203/207/212 = experiment: Pharmacodynamic study, NKCC1 phosphorylation in kidney of naive mice; assay type: in vivo, mouse; details: Fig S8b (kidney)
Description: To define ZT-1a efficacy in naive mice in vivo, we examined phosphorylation of SPAK, NKCC1, and NCC in kidney, and phosphorylation of SPAK, NKCC1, and KCC3 in brain, after intraperitoneal (i.p.) administration of either ZT-1a (10, 30, 50, and 100 mg/kg) or Closantel (50 mg/kg as a reference). […]
5. Pharmacodynamic (PD) study
Male C57BL/6j wild-type mice (6 weeks old, Charles River Laboratories Edinburgh UK) were treated with ZT-1a (in DMSO, Sigma) by subcutaneous injection at doses of 0, 3, 10, 30, 50 and 100 mg/kg. 50 mg/kg Closantel was administered as a comparative control. Vehicle control mice were treated with an equal volume of DMSO solution. One hour after administration, mice were sacrificed by cervical dislocation, and kidney and brain tissues were rapidly dissected and snap-frozen in liquid nitrogen. Age- […]
free conditions at the University of Dundee (UK) as described in our recent study1. Animal experiments and breeding were approved by the University of Dundee ethical committee and performed under a […]
Policy on the Care, Welfare and Treatment of Animals, and regulations set by the University of Dundee and the U.K. Home Office. […]
Brain and kidney tissues were collected at 60 min post injection, and proteins subjected to immunoblot were probed with antibodies specific for phosphorylated forms of SPAK,

## Cc1cc(C(C#N)c2ccc(Cl)cc2)c(Cl)cc1NC(=O)c1cc(Cl)ccc1O (stereo not shown) [ZT-1a, 5-chloro-N-(5-chloro-4-((4-chlorophenyl)(cyano)methyl)-2-methylphenyl)-2-hydroxybenzamide]
[1]
  regional cerebral blood flow (rCBF): does not affect regional cerebral blood flow; also recorded: unaffected
SPAK pSer373; Hypotonic low Cl, 1 uM
  pSPAK/SPAK band intensity ratio: 0.189 and 0.226 and 0.157 and 0.173
SPAK pSer373; Hypotonic low Cl, 3 uM
  pSPAK/SPAK band intensity ratio: 0.081 and 0.093 and 0.086 and 0.0963
SPAK pSer373; Hypotonic low Cl, 10 uM
  pSPAK/SPAK band intensity ratio: 0.038 and 0.034 and 0.031 and 0.043
SPAK pSer373; Isotonic control, 1 uM
  pSPAK/SPAK band intensity ratio: 0.113 and 0.123 and 0.106 and 0.12
SPAK pSer373; Isotonic control, 3 uM
  pSPAK/SPAK band intensity ratio: 0.067 and 0.051 and 0.053 and 0.059
SPAK pSer373; Isotonic control, 10 uM
  pSPAK/SPAK band intensity ratio: 0.031 and 0.034 and 0.024 and 0.028
SPAK pSer373; ~3–10 µM ZT-1a, n = 3
  inhibition of SPAK phosphorylation at Ser373: 70 ± 3.8%
KCC3 pThr1048; Hypotonic low Cl, 1 uM
  T1007/KCC2 band intensity ratio: 0.223 and 0.282 and 0.213 and 0.243
KCC3 pThr1048; Hypotonic low Cl, 3 uM
  T1007/KCC2 band intensity ratio: 0.041 and 0.093 and 0.036 and 0.063
KCC3 pThr1048; Hypotonic low Cl, 10 uM
  T1007/KCC2 band intensity ratio: 0.027 and 0.033 and 0.023 and 0.03
KCC3 pThr1048; Isotonic control, 1 uM
  T1007/KCC2 band intensity ratio: 0.174 and 0.099 and 0.126 and 0.132
KCC3 pThr1048; Isotonic control, 3 uM
  T1007/KCC2 band intensity ratio: 0.134 and 0.118 and 0.103 and 0.121
KCC3 pThr1048; Isotonic control, 10 uM
  T1007/KCC2 band intensity ratio: 0.09 and 0.069 and 0.044 and 0.053
KCC3 pThr1048; ZT-1a 1 uM, Fig S4b
  KCC3 pThr1048 / KCC3: 0.35 and 0.401 and 0.302 and 0.261
[2]; ZT-1a 2.5 or 5 mg/kg, vs vehicle control
  reduction of cerebral hemispheric swelling: 36–54%
[2]; ZT-1a from 3 h post reperfusion, 24 h post tMCAO, n = 12
  infarct volume: 43.6 ± 6.5 mm^3
[2]; ZT-1a from 3 h post reperfusion, 24 h post tMCAO, vs vehicle, n = 12
  decrease of infarct volume: ~ 44%
[3]; Hypotonic low Cl, 1 uM, single replicates
  T906/KCC2 band intensity ratio: 0.214 and 0.239 and 0.189 and 0.203
[3]; Hypotonic low Cl, 3 uM, single replicates
  T906/KCC2 band intensity ratio: 0.058 and 0.074 and 0.03 and 0.063
[3]; Hypotonic low Cl, 10 uM, single replicates
  T906/KCC2 band intensity ratio: 0.03 and 0.034 and 0.02 and 0.026
[3]; Isotonic control, 1 uM, single replicates (Fig 2 source data)
  T906/KCC2 band intensity ratio: 0.356 and 0.264 and 0.316 and 0.279
[3]; Isotonic control, 3 uM, single replicates
  T906/KCC2 band intensity ratio: 0.166 and 0.176 and 0.153 and 0.142
[3]; Isotonic control, 10 uM, single replicates
  T906/KCC2 band intensity ratio: 0.065 and 0.041 and 0.054 and 0.049
[4]; 10 nM Lumino-Green WNK peptide, read-out: IC50, decrease in fluorescence polarization (SPAK–WNK peptide)
  IC50: 325 µM
[4]; Inhibitor 1e-5 μM
  Inhibitor vs SPAK FL (fluorescence polarization signal): 140.3 and 136 and 147.2
[4]; Inhibitor 0.0001 μM
  Inhibitor vs SPAK FL (fluorescence polarization signal): 142.6 and 130.1 and 143.7
[4]; Inhibitor 0.001 μM
  Inhibitor vs SPAK FL (fluorescence polarization signal): 141.9 and 135.2 and 145.3
[4]; Inhibitor 0.003 μM
  Inhibitor vs SPAK FL (fluorescence polarization signal): 148.6 and 138.3 and 144.2
[4]; Inhibitor 0.01 μM
  Inhibitor vs SPAK FL (fluorescence polarization signal): 150.4 and 140.8 and 146.2
[4]; Inhibitor 0.03 μM
  Inhibitor vs SPAK FL (fluorescence polarization signal): 151.3 and 139.2 and 146.8
[4]; Inhibitor 0.1 μM
  Inhibitor vs SPAK FL (fluorescence polarization signal): 152.2 and 141.6 and 147.3
[4]; Inhibitor 0.3 μM
  Inhibitor vs SPAK FL (fluorescence polarization signal): 151.7 and 143.1 and 150.3
[4]; Inhibitor 1 μM
  Inhibitor vs SPAK FL (fluorescence polarization signal): 154.3 and 140.8 and 151.4
[4]; Inhibitor 3 μM
  Inhibitor vs SPAK FL (fluorescence polarization signal): 149 and 139.7 and 147.8
[4]; Inhibitor 10 μM
  Inhibitor vs SPAK FL (fluorescence polarization signal): 149.9 and 139.1 and 147.3
[4]; Inhibitor 100 μM
  Inhibitor vs SPAK FL (fluorescence polarization signal): 127.1 and 121.5 and 130.6
NKCC1 pThr203/207/212; 10 mg/kg
  pTh203.207.212 / NKCC1: 1.13 and 1.26 and 1.54 and 1.32
NKCC1 pThr203/207/212; 30 mg/kg
  pTh203.207.212 / NKCC1: 1.14 and 0.89 and 0.64 and 0.77
NKCC1 pThr203/207/212; 100 mg/kg
  pTh203.207.212 / NKCC1: 0.41 and 0.27 and 0.44 and 0.32
